Experimental data taken from PMC8102477 (2021).

Legend:
[1] = test system: labelled 22AG (DNA, G4) AGGGTTAGGGTTAGGGTTAGGG; assay: FRET efficiency (FAM/TAMRA); conditions: no added Na+ or K+; 30 mM Tris-HCl pH 7.4, 25 °C, 1 bar; 2 µM DNA, 20 µM ThT; Erel rises on binding
[2] = test system: 22AG (DNA, G4) AGGGTTAGGGTTAGGGTTAGGG; assay: fluorescence titration (ThT titrated with 22AG); conditions: 30 mM Tris-HCl pH 7.4, 25 °C, 1 bar, 2.14 µM ThT

binding [1]: yes
Kb ([2]; 60 mM KCl, equivalent independent sites fit): 3.51 ± 0.42 × 10^5 M^-1
Kb ([2]; 60 mM NaCl, equivalent independent sites fit): 0.42 ± 0.04 × 10^5 M^-1
Kb ([2]; no added Na+ or K+, 3 equivalent sites, free DNA mainly unfolded): 0.87 ± 0.06 × 10^5 M^-1
SMILES: Cc1ccc2c(c1)sc(-c1ccc(N(C)C)cc1)[n+]2C
